From patent US20150133456A1, “FLUOROERGOLINE DERIVATIVES AND USES THEREOF” (MAP PHARMACEUTICALS, INC., priority 2012, published 2015) come the findings set out here.

Structures are written as SMILES.

For data set [1], the target named is T1, human 5-HT2B receptor (Homo sapiens, UniProt P41595).
T1 construct: host or cells: CHO-K1 coexpressing mitochondrial apoaequorin
Kind of data set: Aequorin assay, antagonist activity at 5-HT2B. It is filed as cell-based. To be noted: reference agonist at its EC80; read-out: IC50, 5-HT2B antagonism. As to the method: Percentage inhibition values were determined for 2-CF3 dihydroergotamine on the 5-HT2B receptor.

The next data set addresses T2, D2 receptor (Homo sapiens, UniProt P14416).
T2 construct: expressed in transfected cells
Kind of data set: Agonist activity at the D2 receptor. Type of data set: cell-based. The note with it: read-out: EC50, D2 receptor agonism. Here is the method: The assay was performed analogously to the assay described in Example 4.

Data set [2] is described as follows: Metabolism in human liver microsomes. The note with it: 1 μM, 0.2 mg protein/mL, 0 to 60 minutes. Here is the method:
Metabolism of dihydroergotamine (DHE) and 2-CF3 DHE was evaluated in human liver microsomes. DHE mesylate and 2-CF3 DHE mesylate (1 μM each) were incubated separately with human liver microsomes (0.2 mg protein/mL) in triplicate at 37° C. in 0.2 mL (final volume) incubation buffer (50 mM potassium phosphate buffer, pH 7.4, 3 mM MgCl2 and 1 mM EDTA, pH7.4) with or without cofactor, NADPH-generating system. The NADPH-generating system consisted of 1 mM NADP, pH 7.4, 5 mM glucose-6-phosphate, pH 7.4 and 1 unit/mL glucose-6-phosphate dehydrogenase. DHE was added to the incubation mixtures in water. 2-CF3-DHE was added to incubation mixtures in 50:50 (v:v) acetonitrile:water. A low level of acetonitrile in the incubation was maintained to avoid any solvent effects on enzyme activity (typically at 0.5% or lower). Reactions were initiated by the addition of the NADPH-generating system and were terminated at 0, 15, 30 and 60 minutes after initiation by the addition of […], of stop reagent (acetonitrile) containing two internal standards (4′-hydroxydiclofenac-d4 and 1′-hydroxymidazolam-d4, 200 and 50 ng/mL in the final stopped incubation, respectively). The samples were then centrifuged and the supernatant fractions were analyzed by LC/MS/MS to quantify the formation of 8′-OH-DHE (metabolite) in the DHE samples and DHE and 8′-OH-DHE in the 2-CF3-DHE samples.
(In general: Liver microsomes are a subcellular fraction often used to study metabolism.)

Data set [3] concerns the target T1, human 5-HT2B receptor. Kind of data set: Aequorin assay, agonist activity at 5-HT2B. Type of data set: cell-based. To be noted: reference agonist; read-out: EC50, 5-HT2B agonism. Here is the method:
Percentage activation values were determined for 2-CF3 dihydroergotamine at the 5-HT2B receptor.

T1 sequence (P41595 whole entry): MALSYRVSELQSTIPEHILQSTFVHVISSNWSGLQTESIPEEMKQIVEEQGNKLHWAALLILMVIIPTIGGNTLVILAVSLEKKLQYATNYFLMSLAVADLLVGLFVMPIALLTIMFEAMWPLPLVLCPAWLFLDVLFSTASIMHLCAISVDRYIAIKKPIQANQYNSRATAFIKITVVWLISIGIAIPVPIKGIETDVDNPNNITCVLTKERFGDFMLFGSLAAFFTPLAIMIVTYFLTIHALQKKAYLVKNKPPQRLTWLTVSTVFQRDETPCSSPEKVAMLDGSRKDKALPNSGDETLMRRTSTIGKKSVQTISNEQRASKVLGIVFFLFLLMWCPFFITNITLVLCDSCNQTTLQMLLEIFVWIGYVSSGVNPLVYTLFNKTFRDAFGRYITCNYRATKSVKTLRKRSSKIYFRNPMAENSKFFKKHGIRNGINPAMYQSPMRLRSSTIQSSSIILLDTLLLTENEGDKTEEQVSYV
T2 sequence (P14416 whole entry): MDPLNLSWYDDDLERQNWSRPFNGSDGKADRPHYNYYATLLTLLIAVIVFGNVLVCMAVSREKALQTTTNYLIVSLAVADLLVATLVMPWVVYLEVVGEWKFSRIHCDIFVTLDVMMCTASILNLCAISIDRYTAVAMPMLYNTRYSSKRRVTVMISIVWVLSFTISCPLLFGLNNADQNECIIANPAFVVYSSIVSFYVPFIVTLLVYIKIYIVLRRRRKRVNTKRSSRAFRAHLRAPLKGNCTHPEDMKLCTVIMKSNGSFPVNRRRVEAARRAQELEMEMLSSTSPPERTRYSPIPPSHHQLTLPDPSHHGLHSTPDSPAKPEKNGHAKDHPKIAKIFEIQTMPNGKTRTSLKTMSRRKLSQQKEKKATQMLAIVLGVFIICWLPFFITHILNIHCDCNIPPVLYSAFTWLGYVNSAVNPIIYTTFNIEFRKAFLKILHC

For orientation: IC50 means the concentration that inhibits the measured activity by half. For `Cc1cc(NC(=O)Nc2ccc3c(ccn3C)c2)sn1` [SB204741, reference compound], the IC50 at human 5-HT2B receptor [1] turned out to be 28.8 nM.

In general, EC50 refers to the concentration at which the effect is half-maximal. For `CN1C[C@H](C(=O)N[C@]2(C)O[C@@]3(O)[C@@H]4CCCN4C(=O)[C@H](Cc4ccccc4)N3C2=O)C[C@@H]2c3cccc4[nH]cc(c34)C[C@H]21` [dihydroergotamine, reference compound], the EC50 at D2 receptor came to 8.35 nM. Also, the “metabolism by human liver microsomes in the presence of NADPH” value in data set [2] is “extensively metabolized”.

Regarding `CC(N)Cc1c[nH]c2ccc(O)cc12` (stereo not drawn) [α-methyl-5-HT, reference compound], the EC50 on human 5-HT2B receptor [3] turned out to be 1.01 nM.
